Test results: ChEMBL document CHEMBL1909046, “DrugMatrix in vitro pharmacology data”
Where a SMILES comes first, the peptide text is derived from it. Bridges are numbered along the chain shown (N, C = ends). [ ]: non-standard residue; d: D form. The star is where a group is joined. Threoninol(2S,3R) = C[C@@H](O)[C@H](CO)N*

Assays:
Adenosine receptor A1 = target: T1, Adenosine receptor A1 (Homo sapiens, UniProt P30542); format: cell membranes, Membrane; settings: cho;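 note: radioligand binding assay at the adenosine A1 receptor, with DPCPX serving as the labelled ligand; in other assays of this panel Not Active means under 50% inhibition at 10 µM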
T1 sequence (P30542 whole entry): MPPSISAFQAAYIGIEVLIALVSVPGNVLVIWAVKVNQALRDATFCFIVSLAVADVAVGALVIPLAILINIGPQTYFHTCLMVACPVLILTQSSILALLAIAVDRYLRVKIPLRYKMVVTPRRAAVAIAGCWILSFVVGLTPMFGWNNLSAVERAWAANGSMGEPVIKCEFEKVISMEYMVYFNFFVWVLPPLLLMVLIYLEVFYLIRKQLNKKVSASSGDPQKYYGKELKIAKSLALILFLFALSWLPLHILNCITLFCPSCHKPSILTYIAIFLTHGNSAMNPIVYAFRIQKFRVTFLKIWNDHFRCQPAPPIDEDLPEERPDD

Cathepsin G = target: T2, Cathepsin G (Homo sapiens, UniProt P08311); format: tissue-based; settings: neutrophil;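 note: inhibition of Cathepsin G enzyme activity, tested on an AMC-conjugated peptide substrate; in other assays of this panel Not Active means under 50% inhibition at 10 µM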
T2 sequence (P08311 whole entry): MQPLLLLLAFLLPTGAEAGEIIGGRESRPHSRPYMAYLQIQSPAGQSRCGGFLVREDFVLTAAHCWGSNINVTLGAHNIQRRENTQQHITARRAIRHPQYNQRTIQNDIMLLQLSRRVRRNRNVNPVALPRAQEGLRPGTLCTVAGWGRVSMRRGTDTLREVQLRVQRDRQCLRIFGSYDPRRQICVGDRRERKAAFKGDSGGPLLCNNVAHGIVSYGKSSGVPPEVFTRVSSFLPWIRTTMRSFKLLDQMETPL

B2 bradykinin receptor = target: T3, B2 bradykinin receptor (Homo sapiens, UniProt P30411); format: cell membranes, Membrane; settings: chem-1; note: in other assays of this panel Not Active means under 50% inhibition at 10 µM
T3 sequence (P30411 whole entry): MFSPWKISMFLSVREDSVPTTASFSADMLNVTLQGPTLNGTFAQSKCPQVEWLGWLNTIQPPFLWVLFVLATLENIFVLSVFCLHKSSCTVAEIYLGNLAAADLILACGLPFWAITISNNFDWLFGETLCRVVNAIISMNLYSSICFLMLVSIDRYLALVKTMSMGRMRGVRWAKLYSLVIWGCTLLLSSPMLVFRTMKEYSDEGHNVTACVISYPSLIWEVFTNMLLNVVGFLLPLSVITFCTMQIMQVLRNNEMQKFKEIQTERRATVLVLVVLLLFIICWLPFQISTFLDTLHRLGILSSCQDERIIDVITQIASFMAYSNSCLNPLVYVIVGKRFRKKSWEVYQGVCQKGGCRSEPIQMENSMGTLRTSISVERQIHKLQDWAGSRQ

[1] = target: T4, Alpha-2C adrenergic receptor (Homo sapiens, UniProt P18825); assay: DRUGMATRIX: Adrenergic Alpha-2C radioligand binding (ligand: [3H] MK-912); format: cell membranes, Sf9, Membrane; for IC50: call rule not given here
T4 sequence (P18825 whole entry): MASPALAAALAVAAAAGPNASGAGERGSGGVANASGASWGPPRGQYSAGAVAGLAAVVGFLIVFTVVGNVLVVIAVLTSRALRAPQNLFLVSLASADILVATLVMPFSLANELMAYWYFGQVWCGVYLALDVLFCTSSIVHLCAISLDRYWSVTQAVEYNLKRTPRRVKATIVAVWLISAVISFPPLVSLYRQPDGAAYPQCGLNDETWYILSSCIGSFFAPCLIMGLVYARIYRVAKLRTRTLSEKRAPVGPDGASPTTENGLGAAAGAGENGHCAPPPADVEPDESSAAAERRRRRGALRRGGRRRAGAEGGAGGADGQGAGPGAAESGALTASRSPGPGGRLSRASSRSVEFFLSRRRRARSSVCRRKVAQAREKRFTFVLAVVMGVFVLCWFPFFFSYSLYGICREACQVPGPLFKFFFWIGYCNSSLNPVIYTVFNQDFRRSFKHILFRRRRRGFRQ

[2] = target: T5, Vasoactive intestinal polypeptide receptor 1 (Homo sapiens, UniProt P32241); format: cell membranes, Membrane; settings: ht-29; note: in other assays of this panel Not Active means under 50% inhibition at 10 µM
T5 sequence (P32241 whole entry): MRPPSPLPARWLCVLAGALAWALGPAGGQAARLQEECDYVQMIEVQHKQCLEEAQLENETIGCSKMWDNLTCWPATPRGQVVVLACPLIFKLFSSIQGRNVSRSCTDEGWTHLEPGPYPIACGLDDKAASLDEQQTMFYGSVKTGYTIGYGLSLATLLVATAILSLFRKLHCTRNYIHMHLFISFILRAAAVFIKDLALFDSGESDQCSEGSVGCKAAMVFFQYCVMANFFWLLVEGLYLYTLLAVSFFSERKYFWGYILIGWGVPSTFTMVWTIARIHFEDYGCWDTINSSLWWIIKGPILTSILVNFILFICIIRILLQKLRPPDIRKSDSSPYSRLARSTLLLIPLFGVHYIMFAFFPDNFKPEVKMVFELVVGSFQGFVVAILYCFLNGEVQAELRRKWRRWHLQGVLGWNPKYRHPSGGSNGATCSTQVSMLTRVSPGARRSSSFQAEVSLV

Endothelin-1 receptor = target: T6, Endothelin-1 receptor (Homo sapiens, UniProt P25101); format: cell membranes, Membrane; settings: cho-k1; note: in other assays of this panel Not Active means under 50% inhibition at 10 µM
T6 sequence (P25101 whole entry): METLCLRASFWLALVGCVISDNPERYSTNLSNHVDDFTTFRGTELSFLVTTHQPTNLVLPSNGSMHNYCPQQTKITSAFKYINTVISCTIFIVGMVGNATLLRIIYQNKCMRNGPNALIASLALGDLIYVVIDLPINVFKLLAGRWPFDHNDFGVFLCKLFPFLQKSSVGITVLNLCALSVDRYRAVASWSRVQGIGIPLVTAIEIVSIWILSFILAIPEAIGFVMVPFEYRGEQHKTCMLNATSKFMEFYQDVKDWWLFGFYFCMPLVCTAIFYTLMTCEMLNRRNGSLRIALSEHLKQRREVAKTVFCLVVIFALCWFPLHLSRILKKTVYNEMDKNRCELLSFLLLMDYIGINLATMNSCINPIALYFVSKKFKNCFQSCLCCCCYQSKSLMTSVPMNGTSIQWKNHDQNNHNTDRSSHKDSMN

COc1ccccc1C(=O)N1CCC(Cc2ccccc2)CC1
Not Active: IC50 (Adenosine receptor A1) | IC50 (Cathepsin G) | IC50 (B2 bradykinin receptor) | IC50 ([1]; sf9) | IC50 [2] | IC50 (Endothelin-1 receptor)

Cc1ccccc1C(=O)N1CCC(Cc2ccccc2)CC1
Not Active: IC50 (Adenosine receptor A1) | IC50 (Cathepsin G) | IC50 (B2 bradykinin receptor) | IC50 ([1]; sf9) | IC50 [2] | IC50 (Endothelin-1 receptor)

O=C1CC[C@H](N2C(=O)c3ccccc3C2=O)C(=O)N1
Not Active: IC50 (Adenosine receptor A1) | IC50 (Cathepsin G) | IC50 (B2 bradykinin receptor) | IC50 ([1]; sf9) | IC50 [2] | IC50 (Endothelin-1 receptor)

N=C(Nc1ccccc1)Nc1ccccc1
Not Active: IC50 (Adenosine receptor A1) | IC50 (Cathepsin G) | IC50 (B2 bradykinin receptor) | IC50 ([1]; sf9) | IC50 [2] | IC50 (Endothelin-1 receptor)

C[C@@H](O)[C@H](CO)NC(=O)[C@@H]1CSSC[C@H](NC(=O)[C@H](N)Cc2ccccc2)C(=O)N[C@@H](Cc2ccccc2)C(=O)N[C@H](Cc2c[nH]c3ccccc23)C(=O)N[C@@H](CCCCN)C(=O)N[C@@H]([C@@H](C)O)C(=O)N1 (H-[dF]CF[dW]KTC-{Threoninol(2S,3R)}; disulfide 2-7)
Not Active: IC50 (Adenosine receptor A1) | IC50 (Cathepsin G) | IC50 (B2 bradykinin receptor) | IC50 ([1]; sf9) | IC50 [2] | IC50 (Endothelin-1 receptor)

S=C=Nc1cccc2ccccc12 [1-NAPHTHYLISOTHIOCYANATE]
Not Active: IC50 (Adenosine receptor A1) | IC50 (Cathepsin G) | IC50 (B2 bradykinin receptor) | IC50 [2] | IC50 (Endothelin-1 receptor)
7.92 µM: Ki ([1]; read-out: Ki)
54.5 µM: IC50 ([1]; read-out: IC50)

C[C@](O)(CS(=O)(=O)c1ccc(F)cc1)C(=O)Nc1ccc(C#N)c(C(F)(F)F)c1 [(R)-BICALUTAMIDE]
Not Active: IC50 (Adenosine receptor A1) | IC50 (Cathepsin G) | IC50 (B2 bradykinin receptor) | IC50 ([1]; sf9) | IC50 [2] | IC50 (Endothelin-1 receptor)

CCCC(=O)Nc1ccc(OCC(O)CNC(C)C)c(C(C)=O)c1 (stereo not drawn) [ACEBUTOLOL]
Not Active: IC50 (Adenosine receptor A1) | IC50 (Cathepsin G) | IC50 (B2 bradykinin receptor) | IC50 ([1]; sf9) | IC50 [2] | IC50 (Endothelin-1 receptor)

CC(=O)Nc1ccc(O)cc1 [ACETAMINOPHEN]
Not Active: IC50 (Adenosine receptor A1) | IC50 (Cathepsin G) | IC50 (B2 bradykinin receptor) | IC50 ([1]; sf9) | IC50 [2] | IC50 (Endothelin-1 receptor)

COc1cc2c(c3oc(=O)c4c(c13)CCC4=O)[C@@H]1C=CO[C@@H]1O2 [AFLATOXIN]
Not Active: IC50 (Adenosine receptor A1) | Ki (Adenosine receptor A1) | IC50 (Cathepsin G) | Ki (Cathepsin G) | IC50 (B2 bradykinin receptor) | Ki (B2 bradykinin receptor) | IC50 ([1]; sf9) | Ki ([1]; sf9) | IC50 [2] | Ki [2] | IC50 (Endothelin-1 receptor) | Ki (Endothelin-1 receptor)

N=C(N)NC(=O)c1nc(Cl)c(N)nc1N [AMILORIDE]
Not Active: IC50 (Adenosine receptor A1) | IC50 (Cathepsin G) | IC50 (B2 bradykinin receptor) | IC50 ([1]; sf9) | IC50 [2] | IC50 (Endothelin-1 receptor)

Cc1cc(=O)n(-c2ccccc2)n1C [ANTIPYRINE]
Not Active: IC50 (Adenosine receptor A1) | IC50 (Cathepsin G) | IC50 (B2 bradykinin receptor) | IC50 ([1]; sf9) | IC50 [2] | IC50 (Endothelin-1 receptor)

CN1C(=O)COc2c(C(=O)NC3CN4CCC3CC4)cc(Cl)cc21 (stereo not drawn) [AZASETRON]
Not Active: IC50 (Adenosine receptor A1) | IC50 (Cathepsin G) | IC50 (B2 bradykinin receptor) | IC50 ([1]; sf9) | IC50 [2] | IC50 (Endothelin-1 receptor)

C[C@H]1C[C@H]2[C@@H]3CCC4=CC(=O)C=C[C@]4(C)[C@@]3(Cl)[C@@H](O)C[C@]2(C)[C@@]1(O)C(=O)CO [BECLOMETHASONE]
Not Active: IC50 (Adenosine receptor A1) | IC50 (Cathepsin G) | IC50 (B2 bradykinin receptor) | IC50 ([1]; sf9) | IC50 [2] | IC50 (Endothelin-1 receptor)

CCOC(=O)[C@H](CCc1ccccc1)N[C@H]1CCc2ccccc2N(CC(=O)O)C1=O [BENAZEPRIL]
Not Active: IC50 (Adenosine receptor A1) | IC50 (Cathepsin G) | IC50 (B2 bradykinin receptor) | IC50 ([1]; sf9) | IC50 [2] | IC50 (Endothelin-1 receptor)

Nc1c(CC(=O)O)cccc1C(=O)c1ccc(Br)cc1 [BROMFENAC]
Not Active: IC50 (Adenosine receptor A1) | IC50 (Cathepsin G) | IC50 (B2 bradykinin receptor) | IC50 ([1]; sf9) | IC50 [2] | IC50 (Endothelin-1 receptor)

CCCCN1CCCCC1C(=O)Nc1c(C)cccc1C.Cl (stereo not drawn) [BUPIVACAINE HYDROCHLORIDE]
Not Active: IC50 (Adenosine receptor A1) | IC50 (Cathepsin G) | IC50 (B2 bradykinin receptor) | IC50 ([1]; sf9) | IC50 [2] | IC50 (Endothelin-1 receptor)

O=C1CC2(CCCC2)CC(=O)N1CCCCN1CCN(c2ncccn2)CC1 [BUSPIRONE]
Not Active: IC50 (Adenosine receptor A1) | IC50 (Cathepsin G) | IC50 (B2 bradykinin receptor) | IC50 ([1]; sf9) | IC50 [2] | IC50 (Endothelin-1 receptor)

C[C@@]12C(=O)OC(=O)[C@]1(C)[C@H]1CC[C@@H]2O1 [CANTHARIDIN]
Not Active: IC50 (Adenosine receptor A1) | IC50 (Cathepsin G) | IC50 (B2 bradykinin receptor) | IC50 ([1]; sf9) | IC50 [2] | IC50 (Endothelin-1 receptor)

O=NN(CCCl)C(=O)NCCCl [CARMUSTINE]
Not Active: IC50 (Adenosine receptor A1) | IC50 (Cathepsin G) | IC50 (B2 bradykinin receptor) | IC50 ([1]; sf9) | IC50 [2] | IC50 (Endothelin-1 receptor)

CC1=C(C(=O)O)N2C(=O)[C@@H](NC(=O)[C@H](N)c3ccccc3)[C@H]2SC1 [CEPHALEXIN ANHYDROUS]
Not Active: IC50 (Adenosine receptor A1) | IC50 (Cathepsin G) | IC50 (B2 bradykinin receptor) | IC50 ([1]; sf9) | IC50 [2] | IC50 (Endothelin-1 receptor)

O=C(N[C@H](CO)[C@H](O)c1ccc([N+](=O)[O-])cc1)C(Cl)Cl [CHLORAMPHENICOL]
Not Active: IC50 (Adenosine receptor A1) | IC50 (Cathepsin G) | IC50 (B2 bradykinin receptor) | IC50 ([1]; sf9) | IC50 [2] | IC50 (Endothelin-1 receptor)

ClC(Cl)Cl [CHLOROFORM]
Not Active: IC50 (Adenosine receptor A1) | IC50 (Cathepsin G) | IC50 (B2 bradykinin receptor) | IC50 ([1]; sf9) | IC50 [2] | IC50 (Endothelin-1 receptor)

C=C1CC[C@H](O)C/C1=C/C=C1\CCC[C@]2(C)[C@@H]([C@H](C)CCCC(C)C)CC[C@@H]12 [CHOLECALCIFEROL]
Not Active: IC50 (Adenosine receptor A1) | IC50 (Cathepsin G) | IC50 (B2 bradykinin receptor) | IC50 ([1]; sf9) | IC50 [2] | IC50 (Endothelin-1 receptor)

C[N+](C)(C)CCO.[Cl-] [CHOLINE CHLORIDE]
Not Active: IC50 (Adenosine receptor A1) | IC50 (Cathepsin G) | IC50 (B2 bradykinin receptor) | IC50 ([1]; sf9) | IC50 [2] | IC50 (Endothelin-1 receptor)

CCOC(=O)C(C)(C)Oc1ccc(Cl)cc1 [CLOFIBRATE]
Not Active: IC50 (Adenosine receptor A1) | IC50 (Cathepsin G) | IC50 (B2 bradykinin receptor) | IC50 ([1]; sf9) | IC50 [2] | IC50 (Endothelin-1 receptor)
